Here are results for six compounds from patent US20220274914A1, “TRICYCLIC DERIVATIVES AS HYPOXIA INDUCIBLE FACTOR-2(ALPHA) INHIBITORS” (NIKANG THERAPEUTICS, INC., priority 2019, published 2022).

The test concerns the target T1, HIF-2α (Homo sapiens, UniProt Q99814).
T1 construct: endogenous in cells; host or cells: 786-0 cells
Nature of the test: VEGF ELISA Assay. Type of test: cell-based. The following applies: VEGF expression in 786-0 cells; VEGF in culture medium by ELISA; four parameter dose-response fit. Here is the method:
The ability of the disclosed compounds to inhibit HIF-2α was measured by determining VEGF expression in 786-0 cells. About 7500 786-0 cells were seeded into each well of a 96-well, white, clear bottom plate (07-200-566, Fisher Scientific) with 200 ul growth medium. Four hours later, compounds were dispensed into wells by Tecan D300e digital dispenser with starting concentration of 10 uM and […] of dilution down to 1 nM as final concentration. Each concentration of treatment was performed in duplicate. About 20 hours later, medium was removed and fresh medium was added, followed by compounds treatment as described above. 24 hours later, cell culture medium was collected to determine VEGF concentration using an ELISA kit (R&D systems, cat #DVE00) following the manufacturer's instruction.
The EC50 is calculated by GraphPad Prism using the dose-response-inhibition (four parameter) equation. The plate with cells was then subjected to CellTiter-Glo luminescence cell viability assay (Promega) to determine the effect of these compounds on cell numbers after the above treatment.
On the technique in general: ELISA stands for enzyme-linked immunosorbent assay.

T1 sequence (Q99814 whole entry): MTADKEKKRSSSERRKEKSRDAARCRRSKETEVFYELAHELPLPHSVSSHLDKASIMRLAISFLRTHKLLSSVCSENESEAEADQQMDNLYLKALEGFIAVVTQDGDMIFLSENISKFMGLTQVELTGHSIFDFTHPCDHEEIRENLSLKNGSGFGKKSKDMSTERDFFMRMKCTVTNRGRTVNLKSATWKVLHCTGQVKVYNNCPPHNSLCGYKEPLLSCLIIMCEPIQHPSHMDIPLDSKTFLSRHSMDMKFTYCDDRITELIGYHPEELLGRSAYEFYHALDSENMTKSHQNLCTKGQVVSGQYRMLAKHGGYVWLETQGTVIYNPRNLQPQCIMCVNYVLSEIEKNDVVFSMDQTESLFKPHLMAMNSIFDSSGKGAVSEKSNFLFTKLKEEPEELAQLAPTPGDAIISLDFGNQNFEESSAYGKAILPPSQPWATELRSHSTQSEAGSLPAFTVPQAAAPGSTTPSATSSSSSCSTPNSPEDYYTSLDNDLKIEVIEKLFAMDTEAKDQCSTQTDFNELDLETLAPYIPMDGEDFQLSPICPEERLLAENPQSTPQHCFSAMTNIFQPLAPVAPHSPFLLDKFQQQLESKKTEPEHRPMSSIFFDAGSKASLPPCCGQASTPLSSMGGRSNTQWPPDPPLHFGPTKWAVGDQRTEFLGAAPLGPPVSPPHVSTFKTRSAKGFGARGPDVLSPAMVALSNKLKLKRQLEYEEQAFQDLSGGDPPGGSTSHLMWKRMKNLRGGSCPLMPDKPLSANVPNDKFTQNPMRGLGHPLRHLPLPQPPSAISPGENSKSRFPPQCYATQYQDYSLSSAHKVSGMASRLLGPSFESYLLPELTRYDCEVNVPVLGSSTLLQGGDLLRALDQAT

For the compound `CC1CCC2(O)c3c(ccc(Oc4cc(F)cc(C#N)c4)c31)C(F)(F)C2(F)F` (single isomer, unassigned) [one of 7-1 and 7-2], the EC50 (commonly the concentration needed to bring the measured effect to its halfway point) was 372 nM.

Turning to `N#Cc1cc(F)cc(Oc2ccc3c4c2CCC[C@]4(O)C(F)(F)C3(F)F)c1` [Compound 2, (R)-3-fluoro-5-((1,1,2,2-tetrafluoro-8a-hydroxy-1,2,6,7,8,8a-hexahydroacenaphthylen-5-yl)oxy)benzonitrile], the EC50 stood at 6 nM.

The compound `N#Cc1cc(F)cc(Oc2ccc3c4c2CCCC4(O)C(F)(F)C3(F)F)c1` (stereo not drawn) [Compound 1, 3-fluoro-5-((1,1,2,2-tetrafluoro-8a-hydroxy-1,2,6,7,8,8a-hexahydroacenaphthylen-5-yl)oxy)benzonitrile] had an EC50 of 37 nM.

With `CC1CCC2(O)c3c(ccc(Oc4cc(F)cc(C#N)c4)c31)C(F)(F)C2(F)F` (single isomer, unassigned) [the other of 7-1 and 7-2], the EC50 worked out at 3050 nM.

As to `N#Cc1cc(F)cc(Oc2ccc3c4c2C(F)C(F)(F)CC4(O)C(F)(F)C3(F)F)c1` (stereo not drawn) [8-1 or 8-2], the EC50 amounted to 23 nM.

With `C=C1CCC2(O)c3c(ccc(Oc4cc(F)cc(C#N)c4)c31)C(F)(F)C2(F)F` (stereo not drawn) [Compound 3, 3-fluoro-5-((1,1,2,2-tetrafluoro-8a-hydroxy-6-methylene-1,2,6,7,8,8a-hexahydroacenaphthylen-5-yl)oxy)benzonitrile], the EC50 is 534 nM.
